In patent US9056890B2, “WDHD1 peptides and vaccines including the same” (OncoTherapy Science Inc., priority 2010, dated 2015):
“Also recorded” adds a separate entry of the source.

Key:
[1] = system: peptide-pulsed TISI cells; experiment: IFN-gamma ELISPOT assay on CTLs induced with peptide; format: cell-based, human; details: CTLs from HLA-A*2402 positive donor after 3rd peptide stimulation, versus target cells not pulsed with peptide
Excerpt: Monocyte-derived dendritic cells (DCs) were used as antigen-presenting cells to induce cytotoxic T lymphocyte (CTL) responses against peptides presented on human leukocyte antigen (HLA). DCs were generated in vitro as described elsewhere (Nakahara S et al., Cancer Res 2003, 63(14): 4112-8). Specifically, peripheral blood mononuclear cells isolated from a normal volunteer (HLA-A*2402 positive) by Ficoll-Plaque (Pharmacia) solution were separated by adherence to a plastic tissue culture dish (Becton Dickinson) so as to enrich them as the monocyte fraction. The monocyte-enriched population was cultured in the presence of 1000 U/ml of granulocyte-macrophage colony-stimulating factor (R&D System) and 1000 U/ml of interleukin (IL)-4 (R&D System) in AIM-V Medium (Invitrogen) containing 2% heat-inactivated autologous serum (AS). After 7 days of culture, the cytokine-induced DCs were pulsed with 20 micro-g/ml of each of the synthesized peptides in the presence of 3 micro-g/ml of beta 2-microglobulin for 3 hr at 37 degrees C. in AIM-V Medium. The generated cells appeared to express DC-associated molecules, such as CD80, CD83, CD86 and HLA class II, on their cell surfaces (data not shown). These peptide-pulsed DCs were then inactivated by X-irradiated (20 Gy) and mixed at a 1:20 ratio with autologous CD8+ T cells, obtained by positive selection with CD8 Positive Isolation Kit (Dynal). These cultures were set up in 48-well plates (Corning); each well contained 1.5×10^4 peptide-pulsed DCs, 3×10^5 CD8+ T cells and 10 ng/ml of IL-7 (R&D System) in 0.5 ml of AIM-V/2% AS medium. Three days later, these cultures were supplemented with IL-2 (CHIRON) to a final concentration of 20 IU/ml. On day 7 and 14, the T cells were further stimulated with the autologous peptide-pulsed DCs. The DCs were prepared each time by the same way described above. CTL was tested against peptide-pulsed TISI cells after the 3rd round of peptide stimulation on day 21 (Tanaka H et al., Br J Cancer 2001, 84(1): 94-9; Umano Y et al., Br J Cancer 2001, 84(8): 1052-7; Uchida N et al., Clin Cancer Res 2004, 10(24): 8577-86; Suda T et al., Cancer Sci 2006, 97(5): 411-9; Watanabe T et al., Cancer Sci 2005, 96(8): 498-506).
(§1) Specifically, peptide-pulsed TISI (1×10^4/well) was prepared as stimulator cells. Cultured cells in 48 wells were used as responder cells. IFN-gamma ELISPOT assay and IFN-gamma ELISA assay were performed under manufacture procedure.

[2] = system: peptide-pulsed TISI cells; experiment: IFN-gamma ELISA assay of CTL lines; format: cell-based, human; details: target cells pulsed with corresponding peptide versus without peptide pulse
Protocol: CTLs were expanded in culture using the method similar to the one described by Riddell et al. (Walter E A et al., N Engl J Med 1995, 333(16): 1038-44; Riddell S R et al., Nat Med 1996, 2(2): 216-23). A total of 5×10^4 CTLs were suspended in 25 ml of AIM-V/5% AS medium with 2 kinds of human B-lymphoblastoid cell lines, inactivated by Mitomycin C, in the presence of 40 ng/ml of anti-CD3 monoclonal antibody (Pharmingen). One day after initiating the cultures, 120 IU/ml of IL-2 were added to the cultures. The cultures were fed with fresh AIM-V/5% AS medium containing 30 IU/ml of IL-2 on days 5, 8 and 11 (Tanaka H et al., Br J Cancer 2001, 84(1): 94-9; Umano Y et al., Br J Cancer 2001, 84(8): 1052-7; Uchida N et al., Clin Cancer Res 2004, 10(24): 8577-86; Suda T et al., Cancer Sci 2006, 97(5): 411-9; Watanabe T et al., Cancer Sci 2005, 96(8): 498-506).
as §1

[3] = system: COS7 cells transfected with both WDHD1 and HLA-A*2402; experiment: Specific CTL activity against target cells expressing WDHD1 and HLA-A*2402; format: cell-based, African green monkey; details: COS7 expressing both WDHD1 and HLA-A*2402; listed as WDHD1-A24-9-844
Excerpt: (§2) The cDNA encoding an open reading frame of target genes or HLA-A*2402 was amplified by PCR. The PCR-amplified product was cloned into the expression vector. The plasmids were transfected into COS7, which is the target genes and HLA-A*2402-null cell line, using lipofectamine 2000 (Invitrogen) according to the manufacturer's recommended procedures. After 2 days from transfection, the transfected cells were harvested with versene (Invitrogen) and used as the target cells (5×10^4 cells/well) for CTL activity assay.
(§3) The established CTL lines and clone raised against each peptide were examined for the ability to recognize target cells that express WDHD1 and HLA-A*2402 molecule. […] COS7 cells transfected with either full length of WDHD1 or HLA-A* 2402 were prepared as the controls.

[4] = system: COS7 cells transfected with either full length of WDHD1 or HLA-A*2402; experiment: Specific CTL activity against control target cells; format: cell-based, African green monkey; details: COS7 expressing either HLA-A*2402 or WDHD1 only
Excerpt: as §2, §3

[5] = system: peptide-pulsed TISI cells; experiment: IFN-gamma ELISA assay of CTL clone established by limiting dilution; format: cell-based, human; details: target cells pulsed with peptide versus not pulsed; listed as WDHD1-A24-9-844
Protocol: The dilutions were made to have 0.3, 1, and 3 CTLs/well in 96 round-bottomed micro titer plate (Nalge Nunc International). CTLs were cultured with 1×10^4 cells/well of 2 kinds of human B-lymphoblastoid cell lines, 30 ng/ml of anti-CD3 antibody, and 125 U/ml of IL-2 in a total of 150 micro-l/well of AIM-V Medium containing 5% AS. 50 micro-l/well of IL-2 were added to the medium 10 days later so to reach a final concentration of 125 U/ml IL-2. CTL activity was tested on the 14th day, and CTL clones were expanded using the same method as described above (Uchida N et al., Clin Cancer Res 2004, 10(24): 8577-86; Suda T et al., Cancer Sci 2006, 97(5): 411-9; Watanabe T et al., Cancer Sci 2005, 96(8): 498-506).
as §1

SYLAWIGFSA [SEQ ID NO: 29] was tested, and the “peptide specific CTL activity, IFN-gamma production” value (shortened to “peptide specific CTL activity”) [1] was “potent IFN-gamma production” and the “IFN-gamma production of CTL lines” value [2] was “potent IFN-gamma production”.
For RSVIFHNHL [SEQ ID NO: 6], the “peptide specific CTL activity” value [1] was “potent IFN-gamma production”.
In the case of KQILHGDPL [SEQ ID NO: 8], the “peptide specific CTL activity” value [1] is reported as “potent IFN-gamma production”.
In the case of KYASRSRKL [SEQ ID NO: 1], the “peptide specific CTL activity” value ([1]; listed as WDHD1-A24-9-798) is reported as “not observed”.
GYAICGLAW [SEQ ID NO: 14] was tested, and the “peptide specific CTL activity” value [1] was “potent IFN-gamma production”.
TWSPCGQYL [SEQ ID NO: 12] was tested, and the “peptide specific CTL activity” value [1] was “potent IFN-gamma production” and the “IFN-gamma production of CTL lines” value [2] was “potent IFN-gamma production”.
With GYSNTATEW [SEQ ID NO: 13] the “peptide specific CTL activity” value [1] was “potent IFN-gamma production”, the “IFN-gamma production of CTL lines” value [2] was “potent IFN-gamma production” and the “specific CTL activity of CTL clone” value [3] was “potent CTL activity; also recorded: specific CTL activity”. The “specific CTL activity of CTL clone against controls” value [4] was “no significant specific CTL activity” and the “IFN-gamma production of CTL clone” value [5] was “potent IFN-gamma production”.
With EQFWRSVIF [SEQ ID NO: 19] the “peptide specific CTL activity” value [1] was “potent IFN-gamma production”.
